According to patent US8859581B2, “Azaheterocyclic compounds as kinase inhibitors” (Merck Patent GmbH, priority 2005, dated 2014):
Where a name gives a salt, the structure may show the parent alone. Read-outs that look alike come from different tables or passages of the source.

What was measured:
IGF1R = molecular target: T1, IGF1R (Homo sapiens, UniProt P08069); assay: Inhibition of IGF-1R (IC50): IGF1-stimulated IGF1R autophosphorylation in human tumour cells, Capture-ELISA or LUMINEX; type: cell-based; details: human tumour cells expressing IGF1R (for example MCF-7 or Calu-6), 45 min pre-treatment, IGF1 stimulation 5 min
T1 construct: endogenous in cells
Procedure: Cultivated human tumour cells which express the IGF1 receptor (IGF1R) (for example MCF-7 or Calu-6) are stimulated using human IGF1, the natural ligand of IGF1R. The stimulation induces autophosphorylation of tyrosine residues in the cytoplasmatic IGF1R domain, which triggers signal transduction cascades, which result in apoptosis inhibition and cell proliferation.
The amount of phosphorylated IGF1R is determined by a receptor-specific Capture-ELISA or an analogous LUMINEX assay. The IGF1R from cell lysates is bound to a 96-well ELISA plate or LUMINEX beads (“capturing”) by means of a specific antibody, and the tyrosine phosphorylation is detected using a biotin-labelled anti-phosphotyrosine antibody and a streptavidin peroxidase conjugate by a chemoluminescence method or by means of a fluorescence-labelled anti-phosphotyrosine antibody, In order to determine the activity of kinase inhibitors, cells are pre-treated with increasing concentrations of these compounds for 45 min and subsequently stimulated using IGF1 for 5 min. As internal control, the biological activity of the ligand IGF1 is checked and a concentration series of an IGF1R reference inhibitor measured.

T1 sequence (P08069 31-1367): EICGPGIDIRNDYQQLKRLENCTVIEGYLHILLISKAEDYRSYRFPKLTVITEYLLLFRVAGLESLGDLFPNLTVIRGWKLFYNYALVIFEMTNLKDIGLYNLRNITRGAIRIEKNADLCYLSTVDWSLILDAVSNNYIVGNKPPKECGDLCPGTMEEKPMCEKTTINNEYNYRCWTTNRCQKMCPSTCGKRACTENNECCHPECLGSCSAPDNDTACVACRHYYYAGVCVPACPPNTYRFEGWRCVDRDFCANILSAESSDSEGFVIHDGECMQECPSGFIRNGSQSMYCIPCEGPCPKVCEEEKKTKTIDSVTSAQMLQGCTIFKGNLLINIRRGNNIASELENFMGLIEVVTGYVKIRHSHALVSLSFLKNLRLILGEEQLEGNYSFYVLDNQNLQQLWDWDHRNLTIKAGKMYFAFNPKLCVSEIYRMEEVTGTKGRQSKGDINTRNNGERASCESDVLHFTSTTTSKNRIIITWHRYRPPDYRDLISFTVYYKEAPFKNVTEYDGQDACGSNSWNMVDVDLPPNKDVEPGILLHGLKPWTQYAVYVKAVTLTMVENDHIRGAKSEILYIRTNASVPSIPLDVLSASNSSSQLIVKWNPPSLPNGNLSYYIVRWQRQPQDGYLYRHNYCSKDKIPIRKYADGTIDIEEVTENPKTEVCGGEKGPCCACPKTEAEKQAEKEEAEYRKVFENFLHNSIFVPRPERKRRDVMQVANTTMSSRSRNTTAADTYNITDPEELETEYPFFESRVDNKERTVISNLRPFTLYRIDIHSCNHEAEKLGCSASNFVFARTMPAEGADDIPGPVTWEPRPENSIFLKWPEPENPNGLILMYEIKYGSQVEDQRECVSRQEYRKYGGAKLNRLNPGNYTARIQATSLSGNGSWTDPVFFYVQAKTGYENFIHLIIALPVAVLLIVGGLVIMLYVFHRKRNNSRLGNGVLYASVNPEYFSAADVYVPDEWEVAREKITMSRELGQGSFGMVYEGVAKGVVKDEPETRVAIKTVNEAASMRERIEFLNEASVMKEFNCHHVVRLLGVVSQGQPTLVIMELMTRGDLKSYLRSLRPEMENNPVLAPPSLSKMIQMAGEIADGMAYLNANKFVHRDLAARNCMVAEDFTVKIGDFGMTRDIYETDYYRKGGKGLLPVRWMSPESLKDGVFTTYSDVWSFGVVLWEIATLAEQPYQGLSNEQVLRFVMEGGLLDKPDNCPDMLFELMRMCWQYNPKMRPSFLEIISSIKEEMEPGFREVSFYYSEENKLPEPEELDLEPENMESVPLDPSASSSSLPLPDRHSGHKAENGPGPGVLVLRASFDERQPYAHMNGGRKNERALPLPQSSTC

Compound | IC50 (IGF1R; read-out: IC50 (μM), IGF1R) [µM] | melting point | IC50 (IGF1R; read-out: concentration at which the substance inhibits the kinase IGF-1R to the extent of 50%) [µM]
NCCn1cc(-c2cccc(OCc3ccccc3)c2)c2cnccc21 [Compound 72] | 25 |  | 
COc1cc(-c2cc3c(Nc4cccc(C#N)c4)ccnc3[nH]2)cc(OC)c1OC [Compound 11] | 1.6 |  | 
COc1cc(-c2cc3c(NCCc4cccnc4)ccnc3[nH]2)cc(OC)c1OC [Compound 9] | 1.2 |  | 
NCCCCCn1cc(-c2cccc(OCc3ccccc3)c2)c2c(N)nccc21 [Compound 69] | 5.7 | 75 to 78 °C | 
COc1cc(-c2cc3c(NCc4cccnc4)ccnc3[nH]2)cc(OC)c1OC [Compound 8] | 0.93 |  | 
COc1cc(-c2cc3c(Nc4cnc5ccccc5c4)ccnc3[nH]2)cc(OC)c1OC [Compound 1, quinolin-3-yl-[2-(3,4,5-trimethoxyphenyl)-1H-pyrrolo[2,3b]pyridin-4-yl]amine] |  |  | 14
COc1cccc(-c2cc3c(NCc4ccccc4)ccnc3[nH]2)c1 [Compound 14] | 10 |  | 
COc1cc(-c2cc3c(Nc4cccc(F)c4)ccnc3[nH]2)cc(OC)c1OC [Compound 4] | 0.86 | 80 to 81 °C | 
COc1cc(-c2cc3c(NCCc4ccccn4)ccnc3[nH]2)cc(OC)c1OC [Compound 10] | 1.4 |  | 
NCCCCn1cc(-c2cccc(OCc3ccccc3)c2)c2c(N)nccc21 [Compound 68] | 20 |  | 
COc1cccc(-c2cn(CCN3C(=O)c4ccccc4C3=O)c3ccnc(Cl)c23)c1 (as salt: TFA) [Compound 51] |  | 130 °C (dec.) | 
COc1cc(-c2cc3c(Nc4ccc(F)c(Cl)c4)ccnc3[nH]2)cc(OC)c1OC (as salt: hydrochloride) [Compound 5] |  | 267.5 to 269 °C | 

Now from value to compound:

IC50 (IGF1R; read-out: IC50 (μM), IGF1R) [µM] | melting point | IC50 (IGF1R; read-out: concentration at which the substance inhibits the kinase IGF-1R to the extent of 50%) [µM] | Compound
11 |  |  | COc1ccc(CNc2ccnc3[nH]c(-c4ccc(OC)cc4)cc23)cc1 [Compound 16]
0.91 |  |  | NCC1CC(n2cc(-c3cccc(OCc4ccccc4)c3)c3c(N)nccc32)C1 (stereo not shown) [Compound 73]
0.76 |  |  | COc1cc(-c2cc3c(Nc4cnccn4)ccnc3[nH]2)cc(OC)c1OC [Compound 7]
9.9 |  |  | C#CCCCCNc1ccnc2[nH]c(-c3ccc(OC)cc3)cc12 [Compound 20]
0.76 |  |  | COc1cc(-c2cc3c(Nc4cccnc4)ccnc3[nH]2)cc(OC)c1OC [Compound 2]
4.8 |  |  | NCCCn1cc(-c2cccc(OCc3ccccc3)c2)c2c(N)nccc21 [Compound 71]
0.99 |  |  | COc1ccc(Nc2ccnc3[nH]c(-c4cc(OC)c(OC)c(OC)c4)cc23)cc1N1CCN(C)CC1 [Compound 3]
 | 118 to 120 °C |  | C#CCCCCNc1ccnc2[nH]c(-c3ccc(OC)cc3)cc12 (as salt: hydrochloride) (hydrate or solvate) [Compound 20]
